Data: patent publication US8247211B2, “Glycopeptide antibiotics” (American Cyanamid Company, priority 2001, dated 2012)
Values after ≈ are worked out from the molar mass of the structure shown.

Key:
Assay in all cases: In vitro antibacterial evaluation: minimum inhibitory concentration (MIC), broth dilution method
Format in all cases: cell-based
[1] = system: Staphylococcus sp.; conditions: broth dilution, 18 hours at 35° C.
Method: (§1) The minimum inhibitory concentration (MIC), the lowest concentration of the antibiotic which inhibits growth of the test organism, is determined by the broth dilution method using Muller-Hinton II […] (Baltimore Biological Laboratories) following the recommendations of the National Committee for Clinical Laboratory Standards [Methods for dilution antimicrobial susceptibility tests for bacteria that grow aerobically, approved standard M7-A2, National Committee for Clinical Laboratory Standards, Villanova, Pa].
(§2) An inoculum level of 5×10^5 CFU/mL, and a range of antibiotic concentrations (64-0.06 μg/mL) is used. […] The test organisms include a spectrum of Gram-positive bacteria comprised of Staphylococcus sp., Streptococcus sp. and Enterococcus sp. These organisms include recent clinical isolates that are resistant to methicillin, penicillin and/or vancomycin.

[2] = system: Streptococcus sp.; conditions: for MIC Streptococcus pneumoniae (ATCC 6301): strain ATCC 6301; for MIC Streptococcus pneumoniae (GC 1894): strain GC 1894; for MIC Streptococcus pyogenes (GC 4563): strain GC 4563; for MIC Streptococcus agalactiae (GC 4564): strain GC 4564; for MIC Streptococcus pneumoniae (GC 4565): strain GC 4565
Method: as §1, §2

[3] = system: Escherichia coli; conditions: for MIC Escherichia coli (ATCC 25922): strain ATCC 25922; for MIC Escherichia coli (GC 4559): strain GC 4559
Method: as §1, §2

[4] = system: Enterococcus sp.; conditions: for MIC Enterococcus faecalis (ATCC 29212): strain ATCC 29212; for MIC Enterococcus faecalis (GC 2242): strain GC 2242; for MIC Enterococcus faecium (GC 2243): strain GC 2243; for MIC Enterococcus faecalis (GC 2691): strain GC 2691; for MIC Enterococcus faecalis (GC 3059): strain GC 3059; for MIC Enterococcus faecalis (GC 4552): strain GC 4552; for MIC Enterococcus faecalis (GC 4553): strain GC 4553; for MIC Enterococcus faecalis (GC 4554): strain GC 4554; for MIC Enterococcus faecium (GC 4556): strain GC 4556; for MIC Enterococcus faecium (GC 4557): strain GC 4557; for MIC Enterococcus avium (GC 4558): strain GC 4558; for MIC Enterococcus faecalis (GC 6189): strain GC 6189
Method: as §1, §2

CSc1ccc(C2OCC3OC(OC4C(CO)OC(Oc5ccc(CC6NC(=O)C(C(C)c7ccccc7)NC(=O)CNC(=O)C(CO)NC(=O)C(C(O)C7CNC(=N)N7C7OC(CO)C(O)C(O)C7O)NC(=O)C(C(O)C7CNC(=N)N7)NC6=O)cc5)C(O)C4O)C(O)C(O)C3O2)cc1 (stereo not drawn) [Example 144]
MIC Coagulase Negative Staphylococcus (GC 4547) ([1]; 5×10^5 CFU/mL): 1 µg/mL (≈ 0.7 µM)
MIC Coagulase Negative Staphylococcus (GC 4548) ([1]; 5×10^5 CFU/mL): 0.25 µg/mL (≈ 0.175 µM)
MIC Coagulase Negative Staphylococcus (GC 4549) ([1]; 5×10^5 CFU/mL): 0.12 µg/mL (≈ 0.0839 µM)
MIC Coagulase Negative Staphylococcus (GC 4551) ([1]; 5×10^5 CFU/mL): 0.5 µg/mL (≈ 0.35 µM)
MIC Coagulase Negative Staphylococcus (GC 6257) ([1]; 5×10^5 CFU/mL): 0.25 µg/mL (≈ 0.175 µM)
MIC Staphylococcus aureus (ATCC 29213) ([1]; 5×10^5 CFU/mL): 2 µg/mL (≈ 1.4 µM)
MIC Staphylococcus aureus (GC 1131) ([1]; 5×10^5 CFU/mL): 1 µg/mL (≈ 0.7 µM)
MIC Staphylococcus aureus (GC 3051) ([1]; 5×10^5 CFU/mL): 1 µg/mL (≈ 0.7 µM)
MIC Staphylococcus aureus (GC 3053) ([1]; 5×10^5 CFU/mL): 1 µg/mL (≈ 0.7 µM)
MIC Staphylococcus aureus (GC 4541) ([1]; 5×10^5 CFU/mL): 0.5 µg/mL (≈ 0.35 µM)
MIC Staphylococcus aureus (GC 4542) ([1]; 5×10^5 CFU/mL): 0.5 µg/mL (≈ 0.35 µM)
MIC Staphylococcus aureus (GC 4544) ([1]; 5×10^5 CFU/mL): 4 µg/mL (≈ 2.8 µM)
MIC Staphylococcus aureus (GC 4545) ([1]; 5×10^5 CFU/mL): 1 µg/mL (≈ 0.7 µM)
MIC Staphylococcus aureus-SMITH (GC 4543) ([1]; 5×10^5 CFU/mL): 1 µg/mL (≈ 0.7 µM)
MIC Staphylococcus haemolyticus (GC 4546) ([1]; 5×10^5 CFU/mL): 1 µg/mL (≈ 0.7 µM)
MIC Staphylococcus aureus (ATCC 29213) ([1]; strain ATCC 29213): 2 µg/mL (≈ 1.4 µM)
MIC Staphylococcus aureus (GC 1131) ([1]; strain GC 1131): 1 µg/mL (≈ 0.7 µM)
MIC Staphylococcus aureus (GC 3051) ([1]; strain GC 3051): 1 µg/mL (≈ 0.7 µM)
MIC Staphylococcus aureus (GC 3053) ([1]; strain GC 3053): 1 µg/mL (≈ 0.7 µM)
MIC Staphylococcus aureus (GC 4541) ([1]; strain GC 4541): 0.5 µg/mL (≈ 0.35 µM)
MIC Staphylococcus aureus (GC 4542) ([1]; strain GC 4542): 0.5 µg/mL (≈ 0.35 µM)
MIC Staphylococcus aureus-SMITH (GC 4543) ([1]; strain GC 4543): 1 µg/mL (≈ 0.7 µM)
MIC Staphylococcus aureus (GC 4544) ([1]; strain GC 4544): 4 µg/mL (≈ 2.8 µM)
MIC Staphylococcus aureus (GC 4545) ([1]; strain GC 4545): 1 µg/mL (≈ 0.7 µM)
MIC Staphylococcus haemolyticus (GC 4546) ([1]; strain GC 4546): 1 µg/mL (≈ 0.7 µM)
MIC Coagulase Negative Staphylococcus (GC 4547) ([1]; strain GC 4547): 1 µg/mL (≈ 0.7 µM)
MIC Coagulase Negative Staphylococcus (GC 4548) ([1]; strain GC 4548): 0.25 µg/mL (≈ 0.175 µM)
MIC Coagulase Negative Staphylococcus (GC 4549) ([1]; strain GC 4549): 0.12 µg/mL (≈ 0.0839 µM)
MIC Coagulase Negative Staphylococcus (GC 4551) ([1]; strain GC 4551): 0.5 µg/mL (≈ 0.35 µM)
MIC Coagulase Negative Staphylococcus (GC 6257) ([1]; strain GC 6257): 0.25 µg/mL (≈ 0.175 µM)
MIC Streptococcus pneumoniae (ATCC 6301) [2]: <0.06 µg/mL
MIC Streptococcus pneumoniae (GC 1894) [2]: <0.06 µg/mL
MIC Streptococcus pyogenes (GC 4563) [2]: <0.06 µg/mL
MIC Streptococcus agalactiae (GC 4564) [2]: <0.06 µg/mL
MIC Streptococcus pneumoniae (GC 4565) [2]: <0.06 µg/mL
MIC Escherichia coli (ATCC 25922) [3]: 32 µg/mL (≈ 22.4 µM)
MIC Escherichia coli (GC 4559) [3]: 32 µg/mL (≈ 22.4 µM)
MIC Enterococcus faecalis (ATCC 29212) [4]: 2 µg/mL (≈ 1.4 µM)
MIC Enterococcus faecalis (GC 2242) [4]: 2 µg/mL (≈ 1.4 µM)
MIC Enterococcus faecium (GC 2243) [4]: 2 µg/mL (≈ 1.4 µM)
MIC Enterococcus faecalis (GC 2691) [4]: 2 µg/mL (≈ 1.4 µM)
MIC Enterococcus faecalis (GC 3059) [4]: 4 µg/mL (≈ 2.8 µM)
MIC Enterococcus faecalis (GC 4552) [4]: 2 µg/mL (≈ 1.4 µM)
MIC Enterococcus faecalis (GC 4553) [4]: 4 µg/mL (≈ 2.8 µM)
MIC Enterococcus faecalis (GC 4554) [4]: 4 µg/mL (≈ 2.8 µM)
MIC Enterococcus faecium (GC 4556) [4]: 2 µg/mL (≈ 1.4 µM)
MIC Enterococcus faecium (GC 4557) [4]: 2 µg/mL (≈ 1.4 µM)
MIC Enterococcus avium (GC 4558) [4]: 4 µg/mL (≈ 2.8 µM)
MIC Enterococcus faecalis (GC 6189) [4]: 2 µg/mL (≈ 1.4 µM)

CCOc1cc(C2OCC3OC(OC4C(CO)OC(Oc5ccc(CC6NC(=O)C(C(C)c7ccccc7)NC(=O)CNC(=O)C(CO)NC(=O)C(C(O)C7CNC(=N)N7C7OC(CO)C(O)C(O)C7O)NC(=O)C(C(O)C7CNC(=N)N7)NC6=O)cc5)C(O)C4O)C(O)C(O)C3O2)ccc1OC (stereo not drawn) [Example 152, Cyclo[glycyl-β-methylphenylalanyl-O-[4-O-[4,6-O-(3-ethoxy-4-methoxybenzylidene)hexopyranosyl)hexopyranosyl]tyrosyl-3-(2-iminoimidazolidin-4-yl)seryl-3-(3-hexopyranosyl-2-iminoimidazolidin-4-yl)serylseryl]]
MIC Coagulase Negative Staphylococcus (GC 4547) ([1]; 5×10^5 CFU/mL): 8 µg/mL (≈ 5.49 µM)
MIC Coagulase Negative Staphylococcus (GC 4548) ([1]; 5×10^5 CFU/mL): 8 µg/mL (≈ 5.49 µM)
MIC Coagulase Negative Staphylococcus (GC 4549) ([1]; 5×10^5 CFU/mL): 8 µg/mL (≈ 5.49 µM)
MIC Coagulase Negative Staphylococcus (GC 4551) ([1]; 5×10^5 CFU/mL): 16 µg/mL (≈ 11 µM)
MIC Coagulase Negative Staphylococcus (GC 6257) ([1]; 5×10^5 CFU/mL): 8 µg/mL (≈ 5.49 µM)
MIC Staphylococcus aureus (ATCC 29213) ([1]; 5×10^5 CFU/mL): 16 µg/mL (≈ 11 µM)
MIC Staphylococcus aureus (GC 1131) ([1]; 5×10^5 CFU/mL): 16 µg/mL (≈ 11 µM)
MIC Staphylococcus aureus (GC 3051) ([1]; 5×10^5 CFU/mL): 16 µg/mL (≈ 11 µM)
MIC Staphylococcus aureus (GC 3053) ([1]; 5×10^5 CFU/mL): 32 µg/mL (≈ 22 µM)
MIC Staphylococcus aureus (GC 4541) ([1]; 5×10^5 CFU/mL): 16 µg/mL (≈ 11 µM)
MIC Staphylococcus aureus (GC 4542) ([1]; 5×10^5 CFU/mL): 16 µg/mL (≈ 11 µM)
MIC Staphylococcus aureus (GC 4544) ([1]; 5×10^5 CFU/mL): 16 µg/mL (≈ 11 µM)
MIC Staphylococcus aureus (GC 4545) ([1]; 5×10^5 CFU/mL): 8 µg/mL (≈ 5.49 µM)
MIC Staphylococcus aureus-SMITH (GC 4543) ([1]; 5×10^5 CFU/mL): 8 µg/mL (≈ 5.49 µM)
MIC Staphylococcus haemolyticus (GC 4546) ([1]; 5×10^5 CFU/mL): 8 µg/mL (≈ 5.49 µM)
MIC Staphylococcus aureus (ATCC 29213) ([1]; strain ATCC 29213): 16 µg/mL (≈ 11 µM)
MIC Staphylococcus aureus (GC 1131) ([1]; strain GC 1131): 16 µg/mL (≈ 11 µM)
MIC Staphylococcus aureus (GC 3051) ([1]; strain GC 3051): 16 µg/mL (≈ 11 µM)
MIC Staphylococcus aureus (GC 3053) ([1]; strain GC 3053): 32 µg/mL (≈ 22 µM)
MIC Staphylococcus aureus (GC 4541) ([1]; strain GC 4541): 16 µg/mL (≈ 11 µM)
MIC Staphylococcus aureus (GC 4542) ([1]; strain GC 4542): 16 µg/mL (≈ 11 µM)
MIC Staphylococcus aureus-SMITH (GC 4543) ([1]; strain GC 4543): 8 µg/mL (≈ 5.49 µM)
MIC Staphylococcus aureus (GC 4544) ([1]; strain GC 4544): 16 µg/mL (≈ 11 µM)
MIC Staphylococcus aureus (GC 4545) ([1]; strain GC 4545): 8 µg/mL (≈ 5.49 µM)
MIC Staphylococcus haemolyticus (GC 4546) ([1]; strain GC 4546): 8 µg/mL (≈ 5.49 µM)
MIC Coagulase Negative Staphylococcus (GC 4547) ([1]; strain GC 4547): 8 µg/mL (≈ 5.49 µM)
MIC Coagulase Negative Staphylococcus (GC 4548) ([1]; strain GC 4548): 8 µg/mL (≈ 5.49 µM)
MIC Coagulase Negative Staphylococcus (GC 4549) ([1]; strain GC 4549): 8 µg/mL (≈ 5.49 µM)
MIC Coagulase Negative Staphylococcus (GC 4551) ([1]; strain GC 4551): 16 µg/mL (≈ 11 µM)
MIC Coagulase Negative Staphylococcus (GC 6257) ([1]; strain GC 6257): 8 µg/mL (≈ 5.49 µM)
MIC Streptococcus pneumoniae (ATCC 6301) [2]: 2 µg/mL (≈ 1.37 µM)
MIC Streptococcus pneumoniae (GC 1894) [2]: 0.5 µg/mL (≈ 0.343 µM)
MIC Streptococcus pyogenes (GC 4563) [2]: 4 µg/mL (≈ 2.74 µM)
MIC Streptococcus agalactiae (GC 4564) [2]: 8 µg/mL (≈ 5.49 µM)
MIC Streptococcus pneumoniae (GC 4565) [2]: 2 µg/mL (≈ 1.37 µM)
MIC Escherichia coli (ATCC 25922) [3]: >64 µg/mL
MIC Escherichia coli (GC 4559) [3]: >64 µg/mL
MIC Escherichi coli (GC 4560) ([3]; strain GC 4560): 8 µg/mL (≈ 5.49 µM)
MIC Enterococcus faecalis (ATCC 29212) [4]: 32 µg/mL (≈ 22 µM)
MIC Enterococcus faecalis (GC 2242) [4]: 32 µg/mL (≈ 22 µM)
MIC Enterococcus faecium (GC 2243) [4]: 32 µg/mL (≈ 22 µM)
MIC Enterococcus faecalis (GC 2691) [4]: 32 µg/mL (≈ 22 µM)
MIC Enterococcus faecalis (GC 3059) [4]: 32 µg/mL (≈ 22 µM)
MIC Enterococcus faecalis (GC 4552) [4]: 32 µg/mL (≈ 22 µM)
MIC Enterococcus faecalis (GC 4553) [4]: 64 µg/mL (≈ 43.9 µM)
MIC Enterococcus faecalis (GC 4554) [4]: 32 µg/mL (≈ 22 µM)
MIC Enterococcus faecium (GC 4556) [4]: 32 µg/mL (≈ 22 µM)
MIC Enterococcus faecium (GC 4557) [4]: 16 µg/mL (≈ 11 µM)
MIC Enterococcus avium (GC 4558) [4]: 32 µg/mL (≈ 22 µM)
MIC Enterococcus faecalis (GC 6189) [4]: 32 µg/mL (≈ 22 µM)
